Key:
[1] = system: Apo2L/TRAIL protein in NK cells; test: Quantitative ELISA of Apo2L/TRAIL protein in NK cell lysates or supernatants; type: cell-based, human; conditions: stimulated NK cells
Description: Resting and poly(I:C) stimulated NK cell lysates or their culture supernatants were assessed for the presence of Apo2L/TRAIL protein by quantitative ELISA (kit, BD Biosciences). To confirm Apo2L/TRAIL protein expression was increased following activation of NK cells with poly(I:C) or R848, an ELISA was performed.

[2] = system: cell surface Apo2L/TRAIL on NK cells; test: Flow cytometry of cell surface Apo2L/TRAIL on purified NK cells; type: cell-based, human; conditions: 5C2-Alexa 488 staining
Description: Cell surface Apo2L/TRAIL on purified NK cells treated with poly(I:C), R-848 or hIL-2 (30 ng/ml, BD Biosciences) was also analyzed by cytometry. Isotype control (IgG2a, Sigma) and anti-Apo2L/TRAIL antibody (5C2) were labeled with Alexa 488 (Molecular Probes). 5×10^5 cells were incubated with 2 μg of human IgG to block FcRs and 1 μg of the directly labeled mAbs at 4° C. for 45 minutes, followed by 2 washes. Stained cells were analyzed using a FACScan cytometer (Becton Dickenson) and Cellquest software.

[3] = system: B16BL10 melanoma cells; test: 51Cr release cytotoxicity assay on B16 melanoma target cells; type: cell-based, mouse; conditions: NK cells stimulated with agent
Description: (§1) Purified NK cells were treated with poly(I:C) or R-848 and incubated with B16BL10 melanoma cells (ATCC) at the indicated ratios. Purified NK cells stimulated with R-848 were incubated with HCT116 target cells (ATCC) at the indicated ratios. The role of Apo2L/TRAIL in lysis assays in panels B and C was determined by preincubation with neutralizing (5C2) and non-neutralizing (1D1) anti-Apo2L/TRAIL mAbs. The data has been confirmed with NK cells from at least 3 donors and less that 5% SD was observed.
(§2) For the cytotoxicity assays, target cells were labeled with 100 mCi ^51Cr for 1 hour at 37° C. and then washed 3 times before use. 10^4 target cells were added to varying numbers of effector cells at the indicated ratios and incubated in duplicate wells for 4 hours at 37° C., 5% CO2, and supernatants were used to determine ^51Cr released using a Gamma counter. The cytotoxicity assays were performed in round bottom 96 well plates and the percent specific lysis was calculated as 100× (experimental cpm-spontaneous cpm)/(total cpm-spontaneous cpm). The role of Apo2L/TRAIL expressed by NK cells in the lysis of target cells was evaluated using anti-Apo2L/TRAIL mAbs (5C2 and 1D1, Genentech, Inc.). Isotype control antibodies were obtained from BD Biosciences.

[4] = system: HCT116 cells; test: 51Cr release cytotoxicity assay on HCT116 target cells; type: cell-based; conditions: NK cells stimulated with agent
Description: as §1, §2

With poly(I:C) the “Apo2L/TRAIL protein in NK cell lysates” value [1] was “present in a cell-associated form”, the “Apo2L/TRAIL released into supernatants” value [1] was “No significant levels” and the “Cell surface expression of Apo2L/TRAIL on NK cells” value [2] was “detectable cell surface expression”. The “Killing of B16 melanoma cells by stimulated NK cells” value [3] was “efficiently killed” and the “Cytotoxicity of stimulated NK cells towards HCT116 cells” value [4] was “increased cytoxicity”.
